Results: PubChem BioAssay AID1963869 (Molecular Pharmacology Branch, DTP, NCI, 2024)
The source made the active and inactive calls. How the source made its calls: active means viability on the fitted dose curve at most 10% of control; inactive means the rest.

System: KRAS patient-derived spheroids with HUVEC/MSC, viability
Experiment: Anticancer human tumor 323965-272-R-J2-PDC patient-derived pancreatic carcinoma cell line growth inhibition [KRAS2]
Conditions: for IC50: curve of first compound; for viability, T/C: stronger effect = lower value
Procedure, shortened: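 KRAS-mutant tumor cells were grown as spheroids with HUVEC endothelial cells and human MSCs as stroma. Targeted agents were tested alone and with KRAS pathway inhibitors. Doses started at or near clinical Cmax, or 10 microM, descending half-log.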

[1] = second compound 0.0316 µM, first compound 0.0316 µM
[2] = second compound 0.0316 µM, first compound 0.1 µM
[3] = second compound 0.0316 µM, first compound 0.316 µM
[4] = second compound 0.0316 µM, first compound 1 µM
[5] = second compound 0.0316 µM, first compound 3.16 µM
[6] = second compound 0.1 µM, first compound 0.01 µM
[7] = second compound 0.1 µM, first compound 0.0316 µM
[8] = second compound 0.1 µM, first compound 0.1 µM
[9] = second compound 0.1 µM, first compound 0.316 µM
[10] = second compound 0.1 µM, first compound 1 µM
[11] = second compound 0.1 µM, first compound 3.16 µM
[12] = second compound 0.316 µM, first compound 0.01 µM
[13] = second compound 0.316 µM, first compound 0.0316 µM
[14] = second compound 0.316 µM, first compound 0.1 µM
[15] = second compound 0.316 µM, first compound 0.316 µM
[16] = second compound 0.316 µM, first compound 1 µM
[17] = second compound 0.316 µM, first compound 3.16 µM
[18] = second compound 1 µM, first compound 0.01 µM
[19] = second compound 1 µM, first compound 0.0316 µM
[20] = second compound 1 µM, first compound 0.1 µM
[21] = second compound 1 µM, first compound 0.316 µM
[22] = second compound 1 µM, first compound 1 µM
[23] = second compound 1 µM, first compound 3.16 µM
[24] = second compound 3.16 µM, first compound 0.01 µM
[25] = second compound 3.16 µM, first compound 0.0316 µM
[26] = second compound 3.16 µM, first compound 0.1 µM
[27] = second compound 3.16 µM, first compound 0.316 µM
[28] = second compound 3.16 µM, first compound 1 µM
[29] = second compound 3.16 µM, first compound 3.16 µM
[30] = second compound 0.0316 µM, first compound 10 µM
[31] = second compound 0.1 µM, first compound 10 µM
[32] = second compound 0.316 µM, first compound 10 µM
[33] = second compound 1 µM, first compound 10 µM
[34] = second compound 3.16 µM, first compound 10 µM
[35] = second compound 10 µM, first compound 0.01 µM
[36] = second compound 10 µM, first compound 0.0316 µM
[37] = second compound 10 µM, first compound 0.1 µM
[38] = second compound 10 µM, first compound 0.316 µM
[39] = second compound 10 µM, first compound 1 µM
[40] = second compound 10 µM, first compound 3.16 µM
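Wherever IC50 is given: spheroids exposed to agents for 7 days.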
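Wherever viability, T/C is given: spheroids exposed to agents for 7 days; 100% = DMSO vehicle control viability.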

CC1COCCN1c1cc(-c2ccnn2C)c2ccnc(-c3ccn[nH]3)c2n1 (stereo not given) + C=CC(=O)N1CCN(c2nc(OCC3CCCN3C)nc3c2CCN(c2cccc4cccc(C)c24)C3)CC1CC#N
IC50 (second compound 0.0316 µM): < 10 nM
IC50 (second compound 0.1 µM): 12 nM
IC50 (second compound 0.316 µM): < 10 nM
IC50 (second compound 1 µM): < 10 nM
IC50 (second compound 3.16 µM): < 10 nM
viability, T/C (second compound 0.0316 µM, first compound 0.01 µM): 49.2%
viability, T/C [1]: 26.8%
viability, T/C [2]: 18.7%
viability, T/C [3]: 16.4%
viability, T/C [4]: 13.9%
viability, T/C [5]: 12.6%
viability, T/C [6]: 54.5%
viability, T/C [7]: 27.4%
viability, T/C [8]: 15.2%
viability, T/C [9]: 14.8%
viability, T/C [10]: 12.9%
viability, T/C [11]: 12.1%
viability, T/C [12]: 41.4%
viability, T/C [13]: 21.7%
viability, T/C [14]: 14%
viability, T/C [15]: 12.2%
viability, T/C [16]: 11.2%
viability, T/C [17]: 10.6%
viability, T/C [18]: 33%
viability, T/C [19]: 18.2%
viability, T/C [20]: 10.8%
viability, T/C [21]: 11.1%
viability, T/C [22]: 12.2%
viability, T/C [23]: 11.8%
viability, T/C [24]: 5.59%
viability, T/C [25]: 4.03%
viability, T/C [26]: 3.06%
viability, T/C [27]: 1.93%
viability, T/C [28]: 1.48%
viability, T/C [29]: 2.61%

CC1OCC2(CCN(c3cnc(Sc4ccnc(N)c4Cl)c(N)n3)CC2)C1N (stereo not given) + C=CC(=O)N1CCN(c2nc(OCC3CCCN3C)nc3c2CCN(c2cccc4cccc(C)c24)C3)CC1CC#N
IC50 (second compound 0.0316 µM): 36.9 nM
IC50 (second compound 0.1 µM): < 31.6 nM
IC50 (second compound 0.316 µM): < 31.6 nM
IC50 (second compound 1 µM): < 31.6 nM
IC50 (second compound 3.16 µM): < 31.6 nM
viability, T/C [1]: 51.4%
viability, T/C [2]: 39.2%
viability, T/C [3]: 24.4%
viability, T/C [4]: 19.3%
viability, T/C [5]: 12.3%
viability, T/C [30]: 9.85%
viability, T/C [7]: 38.4%
viability, T/C [8]: 31.9%
viability, T/C [9]: 21.5%
viability, T/C [10]: 15.1%
viability, T/C [11]: 10.7%
viability, T/C [31]: 10.8%
viability, T/C [13]: 41%
viability, T/C [14]: 30.5%
viability, T/C [15]: 18.4%
viability, T/C [16]: 17%
viability, T/C [17]: 10.8%
viability, T/C [32]: 9.7%
viability, T/C [19]: 35.2%
viability, T/C [20]: 28.9%
viability, T/C [21]: 15.7%
viability, T/C [22]: 13.5%
viability, T/C [23]: 11.6%
viability, T/C [33]: 10%
viability, T/C [25]: 1.93%
viability, T/C [26]: 1.12%
viability, T/C [27]: 0.53%
viability, T/C [28]: 0.65%
viability, T/C [29]: 1.07%
viability, T/C [34]: 1.33%

Cn1nccc1Nc1nccc(-c2cc3c(s2)C(C)(C)N(CCN2CCOCC2)C3=O)n1 + C=CC(=O)N1CCN(c2nc(OCC3CCCN3C)nc3c2CCN(c2cccc4cccc(C)c24)C3)CC1CC#N
IC50 (second compound 0.0316 µM): 387 nM
IC50 (second compound 0.1 µM): < 31.6 nM
IC50 (second compound 0.316 µM): 58.5 nM
IC50 (second compound 1 µM): < 31.6 nM
IC50 (second compound 3.16 µM): < 31.6 nM
viability, T/C [1]: 59.9%
viability, T/C [2]: 59.8%
viability, T/C [3]: 50.2%
viability, T/C [4]: 43.2%
viability, T/C [5]: 31.5%
viability, T/C [30]: 32.5%
viability, T/C [7]: 49.1%
viability, T/C [8]: 49.1%
viability, T/C [9]: 39.2%
viability, T/C [10]: 36.4%
viability, T/C [11]: 32.1%
viability, T/C [31]: 36.4%
viability, T/C [13]: 55.5%
viability, T/C [14]: 44.9%
viability, T/C [15]: 40%
viability, T/C [16]: 37.4%
viability, T/C [17]: 30.8%
viability, T/C [32]: 35.5%
viability, T/C [19]: 45.5%
viability, T/C [20]: 41.8%
viability, T/C [21]: 45.8%
viability, T/C [22]: 35.7%
viability, T/C [23]: 28.9%
viability, T/C [33]: 29.5%
viability, T/C [25]: 3.69%
viability, T/C [26]: 4.06%
viability, T/C [27]: 2.62%
viability, T/C [28]: 0.91%
viability, T/C [29]: 0.72%
viability, T/C [34]: 0.53%

CC(=O)OC12COC1CC(O)C1(C)C(=O)C(O)C3=C(C)C(OC(=O)C(O)C(NC(=O)OC(C)(C)C)c4ccccc4)CC(O)(C(OC(=O)c4ccccc4)C21)C3(C)C (stereo not given) + CC1OCC2(CCN(c3cnc(Sc4ccnc(N)c4Cl)c(N)n3)CC2)C1N
IC50 (second compound 0.1 µM): < 10 nM
IC50 (second compound 0.316 µM): < 10 nM
IC50 (second compound 1 µM): < 10 nM
IC50 (second compound 3.16 µM): < 10 nM
IC50 (second compound 10 µM): < 10 nM
viability, T/C [6]: 26.3%
viability, T/C [7]: 25.6%
viability, T/C [8]: 25.5%
viability, T/C [9]: 21.7%
viability, T/C [10]: 27%
viability, T/C [11]: 27.7%
viability, T/C [12]: 23.8%
viability, T/C [13]: 23.9%
viability, T/C [14]: 21.3%
viability, T/C [15]: 19.8%
viability, T/C [16]: 23%
viability, T/C [17]: 23.5%
viability, T/C [18]: 34.2%
viability, T/C [19]: 33.5%
viability, T/C [20]: 31.2%
viability, T/C [21]: 32.4%
viability, T/C [22]: 37.2%
viability, T/C [23]: 39.7%
viability, T/C [24]: 16.9%
viability, T/C [25]: 16.3%
viability, T/C [26]: 14.8%
viability, T/C [27]: 14.1%
viability, T/C [28]: 15.2%
viability, T/C [29]: 17.2%
viability, T/C [35]: 18.1%
viability, T/C [36]: 16.5%
viability, T/C [37]: 15.9%
viability, T/C [38]: 12.3%
viability, T/C [39]: 13.9%
viability, T/C [40]: 16.7%

CN(C)C/C=C/C(=O)Nc1cc2c(Nc3ccc(F)c(Cl)c3)ncnc2cc1O[C@H]1CCOC1 + CC1OCC2(CCN(c3cnc(Sc4ccnc(N)c4Cl)c(N)n3)CC2)C1N
IC50 (second compound 0.1 µM): > 100 nM
IC50 (second compound 0.316 µM): 0.979 nM
IC50 (second compound 1 µM): > 100 nM
IC50 (second compound 3.16 µM): < 0.316 nM
IC50 (second compound 10 µM): > 100 nM
viability, T/C (second compound 0.1 µM, first compound 0.000316 µM): 68.4%
viability, T/C (second compound 0.1 µM, first compound 0.001 µM): 75.9%
viability, T/C (second compound 0.1 µM, first compound 0.00316 µM): 65.4%
viability, T/C [6]: 57.8%
viability, T/C [7]: 57.7%
viability, T/C [8]: 58.6%
viability, T/C (second compound 0.316 µM, first compound 0.000316 µM): 63%
viability, T/C (second compound 0.316 µM, first compound 0.001 µM): 49%
viability, T/C (second compound 0.316 µM, first compound 0.00316 µM): 48.1%
viability, T/C [12]: 38.1%
viability, T/C [13]: 41.1%
viability, T/C [14]: 44.6%
viability, T/C (second compound 1 µM, first compound 0.000316 µM): 96.4%
viability, T/C (second compound 1 µM, first compound 0.001 µM): 95.8%
viability, T/C (second compound 1 µM, first compound 0.00316 µM): 78.5%
viability, T/C [18]: 75.2%
viability, T/C [19]: 64.6%
viability, T/C [20]: 63.3%
viability, T/C (second compound 3.16 µM, first compound 0.000316 µM): 39%
viability, T/C (second compound 3.16 µM, first compound 0.001 µM): 33%
viability, T/C (second compound 3.16 µM, first compound 0.00316 µM): 27.4%
viability, T/C [24]: 27.7%
viability, T/C [25]: 28.6%
viability, T/C [26]: 34.7%
viability, T/C (second compound 10 µM, first compound 0.000316 µM): 107%
viability, T/C (second compound 10 µM, first compound 0.001 µM): 96.9%
viability, T/C (second compound 10 µM, first compound 0.00316 µM): 70.5%
viability, T/C [35]: 56%
viability, T/C [36]: 59.8%
viability, T/C [37]: 55.9%

O=C(c1cc(Cc2n[nH]c(=O)c3ccccc23)ccc1F)N1CCN(C(=O)C2CC2)CC1 + CC1OCC2(CCN(c3cnc(Sc4ccnc(N)c4Cl)c(N)n3)CC2)C1N
IC50 (second compound 0.1 µM): > 10000 nM
IC50 (second compound 0.316 µM): > 10000 nM
IC50 (second compound 1 µM): 9440 nM
IC50 (second compound 3.16 µM): < 31.6 nM
IC50 (second compound 10 µM): < 31.6 nM
viability, T/C [7]: 73.2%
viability, T/C [8]: 73.4%
viability, T/C [9]: 82.2%
viability, T/C [10]: 80.1%
viability, T/C [11]: 82.3%
viability, T/C [31]: 53.7%
viability, T/C [13]: 60.9%
viability, T/C [14]: 67.9%
viability, T/C [15]: 65.8%
viability, T/C [16]: 67.3%
viability, T/C [17]: 61.3%
viability, T/C [32]: 40.1%
viability, T/C [19]: 101%
viability, T/C [20]: 106%
viability, T/C [21]: 102%
viability, T/C [22]: 101%
viability, T/C [23]: 88.5%
viability, T/C [33]: 47.8%
viability, T/C [25]: 36.6%
viability, T/C [26]: 40.9%
viability, T/C [27]: 41.4%
viability, T/C [28]: 34.8%
viability, T/C [29]: 36.8%
viability, T/C [34]: 24.9%
viability, T/C [36]: 33.1%
viability, T/C [37]: 33.1%
outcome [38]: inactive
viability, T/C [39]: 28%
viability, T/C [40]: 23.7%
viability, T/C (second compound 10 µM, first compound 10 µM): 19%
